Source: publication PMC10279719 (Nature Communications, 2023)
Values belong to the compound of their own block, whether it stands above or below them.

Assays:
14-3-3ε = target: T1, 14-3-3ε (Homo sapiens, UniProt P62258); experiment: SPR, PEAK tandem peptides binding to immobilised 14-3-3ε; conditions: peptide analyte over amine-coupled 14-3-3ε (CM5); Biacore S200, HBS-TP pH 7.4, 20 °C; steady-state 1:1 fit; mean ± S.E.M.; read-out: SPR KD, 14-3-3ε (epsilon)
T1 construct: 14-3-3ε (UniProt P62258-1; residues 1–255); 8-His tag with TEV protease cleavage site (N); made in house; host or cells: E. coli C41 (DE3)
T1 sequence (P62258 1-255): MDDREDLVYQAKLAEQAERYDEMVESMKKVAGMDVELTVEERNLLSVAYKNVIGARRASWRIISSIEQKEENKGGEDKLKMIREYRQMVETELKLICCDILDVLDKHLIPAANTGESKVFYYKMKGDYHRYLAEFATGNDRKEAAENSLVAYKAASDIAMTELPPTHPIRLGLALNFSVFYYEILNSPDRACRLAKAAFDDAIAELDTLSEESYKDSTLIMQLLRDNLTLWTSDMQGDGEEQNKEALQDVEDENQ
Description: Purified […]3 was diluted to 5 μg ml^-1 in 10 mM sodium acetate pH 4.0 and amine coupled at 25 °C to a Series S CM5 sensor chip, in HBS-N running buffer (20 mM HEPES pH 7.4, 150 mM NaCl) to a final immobilization level of 1100-1400 response units (RU), followed by surface deactivation using 1 M ethanolamine. A blank activation/deactivation was used for the reference surface. […] PEAK PRM peptides: […] Samples were injected in a multi-cycle run (flow rate 30 μl min^-1, contact time of 60 s, dissociation 120 s) without regeneration. Sensorgrams were double referenced, and steady-state binding data fitted using a 1:1 binding model using Biacore S200 Evaluation Software (Cytiva, v. 1.1). […] Representative sensorgrams and fitted dissociation constant (KD) values, depicted as mean ± S.E.M.

14-3-3η = target: T2, 14-3-3η (Homo sapiens, UniProt Q04917); experiment: SPR, PEAK tandem peptides binding to immobilised 14-3-3η; conditions: peptide analyte over amine-coupled 14-3-3η (CM5); Biacore S200, HBS-TP pH 7.4, 20 °C; steady-state 1:1 fit; mean ± S.E.M.; read-out: SPR KD, 14-3-3η (eta)
T2 construct: 14-3-3η (UniProt Q04917-1; residues 1–246); 8-His tag with TEV protease cleavage site (N); made in house; host or cells: E. coli C41 (DE3)
T2 sequence (Q04917 1-246): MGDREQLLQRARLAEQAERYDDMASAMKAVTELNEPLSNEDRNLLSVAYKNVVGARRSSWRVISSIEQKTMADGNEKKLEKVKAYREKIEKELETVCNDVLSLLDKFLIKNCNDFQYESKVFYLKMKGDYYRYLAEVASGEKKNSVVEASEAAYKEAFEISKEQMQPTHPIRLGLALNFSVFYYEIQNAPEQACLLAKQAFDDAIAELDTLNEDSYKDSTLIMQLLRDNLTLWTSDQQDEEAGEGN
Description: (§1) Purified […]3 was diluted to 5 μg ml^-1 in 10 mM sodium acetate pH 4.0 and amine coupled at 25 °C to a Series S CM5 sensor chip, in HBS-N running buffer (20 mM HEPES pH 7.4, 150 mM NaCl) to a final immobilization level of 1100-1400 response units (RU), followed by surface deactivation using 1 M ethanolamine. A blank activation/deactivation was used for the reference surface. […] Samples were injected in a multi-cycle run (flow rate 30 μl min^-1, contact time of 60 s, dissociation 120 s) without regeneration. Sensorgrams were double referenced, and steady-state binding data fitted using a 1:1 binding model using Biacore S200 Evaluation Software (Cytiva, v. 1.1). […] Representative sensorgrams and fitted dissociation constant (KD) values, depicted as mean ± S.E.M.

CrkII^NSH3 = target: T3, CrkII^NSH3 (Homo sapiens, UniProt P46108); experiment: ITC, CrkII NSH3 titrated into PEAK3 tandem peptides (binary) or peptide:14-3-3γ complexes (ternary); assay type: binding; conditions: individual run, repeat 1, CrkII N-SH3 400 µM into the labelled complex 16.8 µM (Titrations 10, 12, 16)
T3 construct: CrkII^NSH3; UniProt P46108-1, residues 134–191; 8-His tag with TEV protease cleavage site (N); made in house; host or cells: E. coli C41 (DE3)
T3 sequence (P46108 134-191): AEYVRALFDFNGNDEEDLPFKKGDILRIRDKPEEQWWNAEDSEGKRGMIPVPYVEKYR
Description: ITC binding experiments were conducted using a MicroCal iTC200 instrument (Malvern Instruments). Titrations were conducted at 25 °C in reverse mode (peptide in cell, protein in syringe) and consisted of 19 injections of 2 μl […] at a rate of 2 s μl^−1 at 90 s time intervals, whilst stirring at 1000 rpm. An initial injection of 0.4 μl protein was made and discarded during data analysis. Proteins (14-3-3ɣ or CrkII^NSH3) were first dialyzed overnight at 4 °C into ITC buffer (20 mM HEPES pH 7.4, 150 mM NaCl, 1 mM TCEP), filtered and degassed under vacuum. […] Following the first titration, excess solution was removed from the cell, and the syringe was washed and dried. […] All data were fitted to a single binding site model to obtain the stoichiometry (N), dissociation constant (KD) and the enthalpy of binding (ΔH), using MicroCal PEAQ-ITC Analysis software (v.1.41).

14-3-3γ = target: T4, 14-3-3γ (Homo sapiens, UniProt P61981); experiment: SPR, PEAK peptides binding to immobilised 14-3-3γ; conditions: peptide analyte over amine-coupled 14-3-3γ (CM5); Biacore S200, HBS-TP pH 7.4, 20 °C; steady-state 1:1 fit; mean ± S.E.M.
T4 construct: 14-3-3γ (UniProt P61981-1; residues 1–247); 8-His tag with TEV protease cleavage site (N); made in house; host or cells: E. coli C41 (DE3)
T4 sequence (P61981 1-247): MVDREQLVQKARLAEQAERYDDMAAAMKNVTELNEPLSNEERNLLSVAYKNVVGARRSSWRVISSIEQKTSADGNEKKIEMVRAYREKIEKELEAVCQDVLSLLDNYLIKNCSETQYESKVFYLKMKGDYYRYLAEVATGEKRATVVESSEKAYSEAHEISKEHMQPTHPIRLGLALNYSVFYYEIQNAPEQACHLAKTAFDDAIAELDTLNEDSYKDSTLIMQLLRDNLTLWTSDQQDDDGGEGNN
Description: as §1

- Kd (14-3-3ε): 7.4 µM
- Kd (14-3-3η): 1.9 µM
Compound: CC[C@H](C)[C@H](NC(=O)[C@H](CCCCN)NC(=O)[C@H](CCCCN)NC(=O)[C@H](CCC(N)=O)NC(=O)[C@@H]1CCCN1C(=O)[C@H](CC(C)C)NC(=O)[C@@H]1CCCN1C(=O)[C@@H]1CCCN1C(=O)[C@@H]1CCCN1C(C)=O)C(=O)N[C@H](C(=O)N[C@@H](CO)C(=O)N[C@@H](CCCNC(=N)N)C(=O)N[C@@H](C)C(=O)N[C@@H](C)C(=O)N[C@@H](COP(=O)(O)O)C(=O)N[C@@H](CO)C(=O)N1CCC[C@H]1C(=O)N[C@@H](CC(=O)O)C(=O)NCC(=O)N[C@@H](Cc1ccccc1)C(N)=O)C(C)C (single isomer, unassigned) [PEAK2^tandem-pS826]

- ITC -T∆S (CrkII^NSH3): -3.23 kcal/mol
- ITC N (sites) (CrkII^NSH3): 0.69
- ITC ∆G (CrkII^NSH3): -7.36 kcal/mol
- ITC ∆H (CrkII^NSH3): -4.16 kcal/mol
Compound: CC[C@H](C)[C@H](NC(=O)[C@H](CCCCN)NC(=O)[C@H](CCCCN)NC(=O)[C@@H]1CCCN1C(=O)[C@H](CC(C)C)NC(=O)[C@@H]1CCCN1C(=O)[C@@H]1CCCN1C(=O)[C@@H]1CCCN1C(=O)[C@H](CC(C)C)NC(=O)[C@@H]1CCCN1C(C)=O)C(=O)N[C@@H](CC(C)C)C(=O)N[C@H](C(=O)N[C@@H](CCCNC(=N)N)C(=O)N[C@H](C(=O)N[C@@H](CCC(N)=O)C(=O)N[C@@H](COP(=O)(O)O)C(=O)N[C@@H](CC(C)C)C(=O)N1CCC[C@H]1C(=O)N[C@H](C(=O)N[C@@H](CCCNC(=N)N)C(=O)N[C@@H](CCCNC(=N)N)C(N)=O)[C@@H](C)O)[C@@H](C)O)[C@@H](C)O (single isomer, unassigned) [PEAK3 tandem-pS69 : 14-3-3γ (K50E)]

- SPR KD, 14-3-3γ (gamma) (14-3-3γ): No binding
Compound: CC[C@H](C)[C@H](NC(=O)[C@H](CCCCN)NC(=O)[C@H](CCCCN)NC(=O)[C@@H]1CCCN1C(=O)[C@H](CC(C)C)NC(=O)[C@@H]1CCCN1C(=O)[C@@H]1CCCN1C(=O)[C@@H]1CCCN1C(=O)[C@H](CC(C)C)NC(=O)[C@@H]1CCCN1C(C)=O)C(=O)N[C@@H](CC(C)C)C(=O)N[C@H](C(=O)N[C@@H](CCCNC(=N)N)C(N)=O)[C@@H](C)O (single isomer, unassigned) [PEAK3^54–66]

- Kd (14-3-3ε): 0.78 µM
Compound: CC[C@H](C)[C@H](NC(=O)[C@H](CCCCN)NC(=O)[C@H](CCCCN)NC(=O)[C@@H]1CCCN1C(=O)[C@H](CC(C)C)NC(=O)[C@@H]1CCCN1C(=O)[C@@H]1CCCN1C(=O)[C@@H]1CCCN1C(=O)[C@H](CC(C)C)NC(=O)[C@@H]1CCCN1C(C)=O)C(=O)N[C@@H](CC(C)C)C(=O)N[C@H](C(=O)N[C@@H](CCCNC(=N)N)C(=O)N[C@H](C(=O)N[C@@H](CCC(N)=O)C(=O)N[C@@H](COP(=O)(O)O)C(=O)N[C@@H](CC(C)C)C(=O)N1CCC[C@H]1C(=O)N[C@H](C(=O)N[C@@H](CCCNC(=N)N)C(=O)N[C@@H](CCCNC(=N)N)C(N)=O)[C@@H](C)O)[C@@H](C)O)[C@@H](C)O (single isomer, unassigned) [PEAK3^tandem-pS69]
